Data published in the NIST ThermoML archive (doi:10.1016/j.jct.2016.10.031).

Assay: molar heat capacity at constant pressure
Conditions: 101.33 kPa, Small (less than 1 g) adiabatic calorimetry

CC(C)(C)c1ccc(Oc2ccc([N+](=O)[O-])cc2)cc1 [1-(tert-butyl)-4-(4-nitrophenoxy)benzene]
molar heat capacity at constant pressure [J/K/mol]
Conditions	Crystal	Glass
5 K	1.355	–
7.47 K	4.099	–
7.73 K	4.357	–
7.99 K	4.806	–
8.25 K	4.93	–
8.5 K	5.379	–
8.76 K	5.679	–
9 K	6.111	–
9.25 K	6.543	–
9.5 K	6.718	–
9.74 K	6.934	–
9.98 K	7.616	–
10 K	7.483	–
10.29 K	7.94	–
10.67 K	8.647	–
11.05 K	9.237	–
11.43 K	9.903	–
11.82 K	10.72	–
12.19 K	11.55	–
12.56 K	12.15	–
12.94 K	12.7	–
13.31 K	13.57	–
13.67 K	14.33	–
14.04 K	15.21	–
14.41 K	15.49	–
14.78 K	16.59	–
15 K	16.88	–
15.14 K	17.38	–
15.51 K	17.73	–
15.87 K	18.62	–
16.23 K	19.3	–
16.59 K	20.01	–
16.95 K	20.59	–
17.31 K	21.22	–
17.67 K	21.96	–
18.02 K	23.17	–
18.38 K	23.47	–
18.74 K	23.92	–
19.09 K	24.86	–
19.44 K	25.53	–
19.8 K	26.14	–
20 K	26.69	–
20.15 K	27.16	–
20.82 K	28.34	–
21.6 K	29.77	–
22.37 K	31.32	–
23.15 K	32.68	–
23.93 K	34.2	–
24.7 K	35.79	–
25 K	36.33	–
25.47 K	37.61	–
26.25 K	38.45	–
27.02 K	40.22	–
27.78 K	41.32	–
28.55 K	43.04	–
29.31 K	44.42	–
30 K	45.73	–
30.07 K	45.76	–
30.84 K	47.58	–
31.6 K	48.75	–
32.37 K	49.72	–
33.14 K	51.08	–
33.9 K	52.67	–
34.66 K	54.05	–
35 K	54.54	–
35.42 K	55.3	–
36.18 K	57.11	–
36.94 K	57.85	–
37.7 K	58.97	–
38.45 K	60.6	–
39.21 K	61.49	–
39.97 K	62.88	–
40 K	63.11	–
40.73 K	64.39	–
41.49 K	65.82	–
42.25 K	66.47	–
43.01 K	68.18	–
43.76 K	69.21	–
44.52 K	70.63	–
45 K	71.17	–
45.29 K	71.91	–
46.05 K	72.64	–
46.81 K	73.61	–
47.56 K	75.02	–
48.32 K	75.74	–
49.08 K	77.04	–
49.84 K	77.52	–
50 K	77.91	–
50.59 K	79.05	–
51.35 K	79.22	–
52.11 K	79.8	–
52.86 K	81.65	–
53.62 K	82.43	–
54.38 K	83.39	–
55.13 K	84.31	–
55.89 K	84.81	–
56.64 K	85.14	–
57.4 K	86.3	–
58.15 K	87.8	–
58.9 K	88.13	–
59.65 K	89.46	–
60 K	89.55	–
60.41 K	89.8	–
61.16 K	91.13	–
61.91 K	92.37	–
62.66 K	92.46	–
63.41 K	94.04	–
64.16 K	94.87	–
64.91 K	94.78	–
65.66 K	96.12	–
66.41 K	96.12	–
67.16 K	97.94	–
67.91 K	97.94	–
68.65 K	99.44	–
69.4 K	100.27	–
70 K	101.19	–
70.15 K	102.77	–
71.05 K	102.93	–
72.11 K	103.85	–
73.17 K	104.93	–
74.23 K	106.18	–
75.29 K	108.42	–
76.35 K	108.75	–
77.41 K	110.08	–
78.47 K	112	–
79.3 K	112.16	–
79.53 K	113.49	–
79.87 K	–	115.9
80 K	113.16	–
80.1 K	112.83	–
80.58 K	114.66	–
80.67 K	–	116.65
80.9 K	113.82	–
81.47 K	–	117.4
81.64 K	116.15	–
81.71 K	114.66	–
82.27 K	–	118.31
82.51 K	115.4	–
82.7 K	116.82	–
83.08 K	–	119.23
83.31 K	116.49	–
83.75 K	117.48	–
83.88 K	–	120.06
84.11 K	117.32	–
84.68 K	–	120.98
84.92 K	118.07	–
85.48 K	–	121.97
85.72 K	119.06	–
86.29 K	–	122.89
86.52 K	119.98	–
87.09 K	–	123.8
87.32 K	120.81	–
87.89 K	–	124.55
88.13 K	121.72	–
88.7 K	–	125.63
88.93 K	122.72	–
89.5 K	–	126.55
89.73 K	123.64	–
90 K	123.8	–
90.3 K	–	127.29
90.54 K	124.63	–
91.1 K	–	128.38
91.34 K	125.55	–
91.91 K	–	129.29
92.15 K	126.55	–
92.71 K	–	130.12
92.95 K	127.29	–
93.52 K	–	131.12
93.75 K	128.13	–
94.32 K	–	132.03
94.56 K	129.21	–
95.13 K	–	132.87
95.36 K	130.12	–
95.93 K	–	133.7
96.17 K	131.04	–
96.73 K	–	134.69
96.97 K	132.03	–
97.54 K	–	135.44
97.77 K	132.87	–
98.34 K	–	136.44
98.58 K	133.78	–
99.14 K	–	137.35
99.38 K	134.61	–
99.95 K	–	138.35
100 K	135.53	–
100.19 K	135.53	–
100.75 K	–	139.43
100.99 K	136.44	–
101.55 K	–	140.18
101.79 K	137.27	–
102.35 K	–	141.01
102.59 K	138.27	–
103.16 K	–	142.01
103.4 K	139.18	–
103.96 K	–	142.76
104.2 K	140.1	–
104.76 K	–	143.67
105 K	141.18	–
105.56 K	–	144.67
105.8 K	141.93	–
106.36 K	–	145.42
106.6 K	142.84	–
107.16 K	–	146.17
107.4 K	143.67	–
107.96 K	–	147.25
108.21 K	144.51	–
108.77 K	–	148.25
109.01 K	145.5	–
109.57 K	–	149
109.81 K	146.25	–
110 K	146.42	–
110.37 K	–	149.83
110.61 K	147.17	–
111.17 K	–	150.74
111.42 K	148.08	–
111.97 K	–	151.66
112.22 K	149	–
112.78 K	–	152.74
113.02 K	149.74	–
113.58 K	–	153.57
113.82 K	150.57	–
114.38 K	–	154.32
114.63 K	151.57	–
115.18 K	–	155.23
115.43 K	152.57	–
115.99 K	–	156.23
116.23 K	153.24	–
116.79 K	–	156.89
117.04 K	154.32	–
117.59 K	–	157.81
117.84 K	155.15	–
118.4 K	–	158.72
118.64 K	155.98	–
119.2 K	–	159.8
119.45 K	156.81	–
120 K	157.31	160.64
120.25 K	157.89	–
120.81 K	–	161.47
121.06 K	158.56	–
121.61 K	–	162.22
121.86 K	159.64	–
122.41 K	–	163.13
122.66 K	160.3	–
123.21 K	–	164.21
123.47 K	161.22	–
124.02 K	–	164.88
124.27 K	162.13	–
124.82 K	–	165.96
125.07 K	162.96	–
125.62 K	–	166.54
125.87 K	163.79	–
126.42 K	–	167.37
126.68 K	164.71	–
127.23 K	–	168.2
127.48 K	165.54	–
128.03 K	–	169.2
128.28 K	166.54	–
128.83 K	–	170.03
129.09 K	167.45	–
129.63 K	–	170.95
129.89 K	168.2	–
130 K	168.2	–
130.43 K	–	171.94
130.69 K	169.03	–
131.24 K	–	172.53
131.49 K	170.03	–
132.04 K	–	173.27
132.3 K	170.86	–
132.84 K	–	174.35
133.1 K	171.69	–
133.64 K	–	175.19
133.9 K	172.77	–
134.44 K	–	176.02
134.71 K	173.61	–
135.25 K	–	176.93
135.51 K	174.44	–
136.05 K	–	177.85
136.31 K	175.1	–
136.85 K	–	178.76
137.11 K	176.02	–
137.65 K	–	179.76
137.92 K	176.85	–
138.45 K	–	180.67
138.72 K	177.93	–
139.25 K	–	181.5
139.52 K	178.68	–
140 K	179.01	–
140.06 K	–	182.42
140.32 K	179.43	–
140.86 K	–	183.25
141.12 K	180.26	–
141.66 K	–	184
141.93 K	181.34	–
142.46 K	–	184.83
142.72 K	181.92	–
143.25 K	–	185.83
143.53 K	182.83	–
144.06 K	–	186.66
144.33 K	183.83	–
144.86 K	–	187.57
145.13 K	184.75	–
145.66 K	–	188.41
145.93 K	185.66	–
146.46 K	–	189.32
146.73 K	186.49	–
147.26 K	–	190.15
